How the values were obtained:
GPR88 = molecular target: T1, GPR88 (Homo sapiens, UniProt Q9GZN0); assay: Lance Ultra TR-FRET cAMP assay using stable PPLS-HA-GPR88 CHO cells; assay type: cell-based; settings: for Emax: CHO; for EC50: stable PPLS-HA-GPR88 CHO cells, value in parentheses beside pEC50
T1 construct: expressed in transfected cells
Protocol: The compounds of the present disclosure offer potent agonism to the orphan receptor GPR88. As such, the compounds of the present disclosure provide therapeutic potential for the treatment of striatal associated disorders such as Parkinson's disease, schizophrenia, and alcohol addiction. All compounds were evaluated for the GPR88 agonist activity in the inventors' previously established in vitro GPR88 Lance TR-FRET cAMP assay. See, supra, Jin et al., 2018, Rahman et al., 2020, and Rahman et al., 2021. As will be described, the TR-FRET signal was converted to fmol cAMP by interpolating from the standard cAMP curve. Fmol cAMP was plotted against the log of compound concentration and data were fit to a three-parameter logistic curve to generate maximum response (Emax) and EC50 values.
Lance™ Ultra cAMP assay using stable PPLS-HA-GPR88 CHO cells. All cAMP assays were performed using the inventors' previously published methods. […] ACS Chemical Neuroscience 2016, 7, 1418-1432, which is incorporated by reference herein with regard to such teaching. Stimulation buffer containing 1× Hank's Balanced Salt Solution (HBSS), 5 mM HEPES, 0.1% BSA stabilizer, and 0.5 mM final IBMX was prepared and titrated to pH 7.4 at room temperature. Serial dilutions of the test compounds (5 μL) and 300 nM forskolin (5 μL), both prepared at 4× the desired final concentration in 2% DMSO/stimulation buffer, were added to a 96-well white ½ area microplate (PerkinElmer). A cAMP standard curve was prepared at 4× the desired final concentration in stimulation buffer and 5 μL was added to the assay plate. Stable PPLS-HA-GPR88 CHO cells were lifted with versene and spun at 270 g for 10 minutes. The cell pellet was resuspended in stimulation buffer and 4,000 cells (10 μL) were added to each well except wells containing the cAMP standard curve. After incubating for 30 min at room temperature, Eu-cAMP tracer and uLIGHT-anti-cAMPworking solutions were added per the manufacturer's instructions. After incubation at room temperature for 1 hour, the TR-FRET signal (ex 337 nm) was read on a CLARIOstar multimode plate reader (BMG Biotech, Cary, NC).
Data Analysis. The TR-FRET signal (665 nm) was converted to fmol cAMP by interpolating from the standard cAMP curve. Fmol cAMP was plotted against the log of compound concentration and data were fit to a three-parameter logistic curve to generate EC50 values (Prism, version 6.0, GraphPad Software, Inc., San Diego, CA).

[1] = rats, intraperitoneally, dose-dependent; cited from earlier work
[2] = rats, intraperitoneally; cited from earlier work

T1 sequence (Q9GZN0 whole entry): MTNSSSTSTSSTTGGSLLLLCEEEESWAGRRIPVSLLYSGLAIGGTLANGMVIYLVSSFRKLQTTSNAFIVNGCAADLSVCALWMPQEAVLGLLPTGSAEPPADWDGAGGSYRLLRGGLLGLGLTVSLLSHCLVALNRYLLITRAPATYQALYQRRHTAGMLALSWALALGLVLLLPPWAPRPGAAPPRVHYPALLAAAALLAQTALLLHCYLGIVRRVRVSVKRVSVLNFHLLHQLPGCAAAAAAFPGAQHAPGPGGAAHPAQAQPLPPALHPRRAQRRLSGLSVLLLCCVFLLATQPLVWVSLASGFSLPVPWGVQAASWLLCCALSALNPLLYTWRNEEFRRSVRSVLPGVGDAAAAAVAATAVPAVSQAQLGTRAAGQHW

Emax (GPR88) | EC50 (GPR88) | SMILES | alcohol intake [1] | alcohol self-administration [1] | sucrose self-administration [2]
102 ± 2% | 676 nM | CCOc1ccc(-c2ccc(N(C[C@@H](N)[C@@H](C)OC)C(=O)N[C@@H](C)c3ccccc3)cc2)cc1 [Compound 58, 3-[(2R,3R)-2-Amino-3-methoxybutyl]-1-[(1 S)-1-phenylethyl]-3-{4′-ethoxy-[1,1′-biphenyl]-4-yl}urea] | – | – | –
100 ± 4% | 407 nM | CO[C@H](C)[C@H](N)CN(C(=O)N[C@@H](C)c1ccccc1)c1ccc(-c2ccc(OC(C)C)cc2)cc1 [Compound 59, 3-[(2R,3R)-2-Amino-3-methoxybutyl]-1-[(1 S)-1-phenylethyl]-3-[4′-(propan-2-yloxy)-[1,1′-biphenyl]-4-yl]urea] | – | – | –
103 ± 4% | 363 nM | CO[C@H](C)[C@H](N)CN(C(=O)N[C@@H](C)c1ccccc1)c1ccc(C#CCC(C)C)cc1 [Compound 60, 3-[(2R,3R)-2-amino-3-methoxybutyl]-3-[4-(4-methylpent-1-yn-1-yl)phenyl]-1-[(1 S)-1-phenylethyl]urea] | – | – | –
– | – | COCc1ccc(-c2ccc(N(C[C@@H](N)[C@@H](C)OC)C(=O)[C@@H]3C[C@H]3c3ccccn3)cc2)cc1 [RTI-13951-33] | significantly reduced | significantly reduced | without effects

Source: patent US20250145561A1, “4-SUBSTITUTED-PHENYL ACETAMIDES AND ARYLUREAS AS AGONISTS FOR THE ORPHAN RECEPTOR GPR88” (RESEARCH TRIANGLE INSTITUTE, priority 2022, published 2025)
